In PubChem BioAssay AID328 (DTP/NCI, 2004):
Several values for one entry are separate records, joined by “and”; a condition that tells them apart may be missing. Equal values may be shown once. Inconclusive results and toxic doses are left out. How the source made its calls: active means survival T/C of 150% or more; inactive means T/C below 125% in these data.

Tested on: BDF1 mice, P388 leukemia ip, median survival T/C
Assay: NCI In Vivo Anticancer Drug Screen. Data for tumor model P388 Leukemia (intraperitoneal) in B6D2F1 (BDF1) mice
Details: endpoint: median survival time, higher = longer survival
Outline: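 Read-out is survival of treated animals expressed relative to the vehicle group, as a T/C ratio.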

[1] = dose: 25.0 mg/kg/injection, schedule: Q01DX009 (ip), vehicle: saline with Tween-80
[2] = dose: 25.0 mg/kg/injection, schedule: Q04DX003 (ip), vehicle: saline with Tween-80
[3] = dose: 50.0 mg/kg/injection, schedule: Q01DX009 (ip), vehicle: saline with Tween-80
[4] = dose: 100.0 mg/kg/injection, schedule: Q01DX009 (ip), vehicle: saline with Tween-80
[5] = dose: 200.0 mg/kg/injection, schedule: Q01DX009 (ip), vehicle: saline with Tween-80
[6] = dose: 100.0 mg/kg/injection, schedule: Q04DX003 (ip), vehicle: saline
[7] = dose: 150.0 mg/kg/injection, schedule: Q01DX009 (ip), vehicle: Klucel (hydroxypropylcellulose) (HPC)
[8] = dose: 200.0 mg/kg/injection, schedule: Q04DX003 (ip), vehicle: saline
[9] = dose: 300.0 mg/kg/injection, schedule: Q01DX009 (ip), vehicle: Klucel (hydroxypropylcellulose) (HPC)
[10] = dose: 400.0 mg/kg/injection, schedule: Q04DX003 (ip), vehicle: saline
[11] = dose: 6.25 mg/kg/injection, schedule: Q01DX009 (ip), vehicle: saline with Tween-80
[12] = dose: 12.5 mg/kg/injection, schedule: Q01DX009 (ip), vehicle: saline with Tween-80
[13] = dose: 12.5 mg/kg/injection, schedule: Q04DX003 (ip), vehicle: saline with Tween-80
[14] = dose: 50.0 mg/kg/injection, schedule: Q04DX003 (ip), vehicle: saline with Tween-80
[15] = dose: 50.0 mg/kg/injection, schedule: Q01DX009 (ip), vehicle: saline
[16] = dose: 50.0 mg/kg/injection, schedule: Q04DX003 (ip), vehicle: saline

Measured: T/C

O=NN(CCCl)C(=O)NC1CSCSC1
inactive: dose: 0.7 mg/kg/injection, schedule: Q01DX009 (ip), vehicle: saline with Tween-80 92 % of control | dose: 3.0 mg/kg/injection, schedule: Q04DX003 (ip), vehicle: saline with Tween-80 119 % of control | [1] 90 % of control
272 % of control and 95 % of control: dose: 37.0 mg/kg/injection, schedule: Q04DX003 (ip), vehicle: saline with Tween-80
active: dose: 1.7 mg/kg/injection, schedule: Q01DX009 (ip), vehicle: saline with Tween-80 151 % of control | dose: 2.6 mg/kg/injection, schedule: Q01DX009 (ip), vehicle: saline with Tween-80 159 % of control | dose: 4.0 mg/kg/injection, schedule: Q01DX009 (ip), vehicle: saline with Tween-80 250 % of control and 192 % of control | dose: 5.0 mg/kg/injection, schedule: Q04DX003 (ip), vehicle: saline with Tween-80 152 % of control | dose: 6.0 mg/kg/injection, schedule: Q01DX009 (ip), vehicle: saline with Tween-80 230 % of control and 250 % of control | dose: 8.0 mg/kg/injection, schedule: Q04DX003 (ip), vehicle: saline with Tween-80 185 % of control | dose: 9.0 mg/kg/injection, schedule: Q01DX009 (ip), vehicle: saline with Tween-80 187 % of control | dose: 12.0 mg/kg/injection, schedule: Q01DX009 (ip), vehicle: saline with Tween-80 184 % of control | dose: 12.0 mg/kg/injection, schedule: Q04DX003 (ip), vehicle: saline with Tween-80 272 % of control and 285 % of control | dose: 18.0 mg/kg/injection, schedule: Q04DX003 (ip), vehicle: saline with Tween-80 204 % of control | [2] 240 % of control and 172 % of control

NC(=NCCCC(NC(=O)c1ccccc1)C(=O)O)NC(=O)c1ccccc1 (configuration not stated)
inactive: [3] 103 % of control | [4] 120 % of control | [5] 118 % of control

COc1cc2c3c4c1OCc1c5c(cc(c1-4)CC3[N+](C)(C)CC2)OCO5 (configuration not stated)
inactive: dose: 6.25 mg/kg/injection, schedule: Q01DX001 (ip), vehicle: saline 105 % of control | dose: 12.5 mg/kg/injection, schedule: Q01DX001 (ip), vehicle: saline 99 % of control

COc1ccc(C=Nc2ccc(OC(C)=O)cc2)cc1
inactive: dose: 45.0 mg/kg/injection, schedule: Q01DX009 (ip), vehicle: Klucel (hydroxypropylcellulose) (HPC) 105 % of control | [3] 110 % of control | dose: 65.0 mg/kg/injection, schedule: Q01DX009 (ip), vehicle: Klucel (hydroxypropylcellulose) (HPC) 110 % of control | dose: 100.0 mg/kg/injection, schedule: Q01DX009 (ip), vehicle: Klucel (hydroxypropylcellulose) (HPC) 110 % of control | [4] 100 % of control | [6] 104 % of control | [7] 105 % of control | dose: 200.0 mg/kg/injection, schedule: Q01DX009 (ip), vehicle: Klucel (hydroxypropylcellulose) (HPC) 115 % of control | dose: 200.0 mg/kg/injection, schedule: Q01DX009 (ip), vehicle: other 104 % of control | [5] 120 % of control | [8] 118 % of control | [9] 120 % of control | dose: 400.0 mg/kg/injection, schedule: Q01DX009 (ip), vehicle: other 95 % of control | [10] 109 % of control

O=C1N2CCOC2=NC1(c1ccccc1)c1ccccc1
inactive: dose: 12.5 mg/kg/injection, schedule: Q01DX009 (ip), vehicle: water 94 % of control | dose: 25.0 mg/kg/injection, schedule: Q01DX009 (ip), vehicle: water 100 % of control | dose: 50.0 mg/kg/injection, schedule: Q01DX009 (ip), vehicle: water 94 % of control | dose: 100.0 mg/kg/injection, schedule: Q01DX009 (ip), vehicle: water 94 % of control

O=C(O)C(Br)(C(=O)O)c1ccccc1
inactive: dose: 100.0 mg/kg/injection, schedule: Q04DX002 (ip), vehicle: saline with Tween-80 93 % of control | dose: 200.0 mg/kg/injection, schedule: Q04DX002 (ip), vehicle: saline with Tween-80 97 % of control | dose: 400.0 mg/kg/injection, schedule: Q04DX002 (ip), vehicle: saline with Tween-80 93 % of control

CN1CCN(C(=O)c2ccc(Cl)c(Cl)c2)CC1
inactive: dose: 3.12 mg/kg/injection, schedule: Q01DX009 (ip), vehicle: saline with Tween-80 103 % of control | [11] 99 % of control | [12] 103 % of control | [13] 108 % of control | [1] 88 % of control | [2] 97 % of control | [3] 99 % of control | [14] 91 % of control | [4] 105 % of control | dose: 100.0 mg/kg/injection, schedule: Q04DX003 (ip), vehicle: saline with Tween-80 97 % of control

CC(=O)OCC(=O)C1CCC=CC1OC(C)=O (configuration not stated)
inactive: dose: 25.0 mg/kg/injection, schedule: Q01DX009 (ip), vehicle: saline 92 % of control | [15] 104 % of control | [16] 95 % of control | dose: 100.0 mg/kg/injection, schedule: Q01DX009 (ip), vehicle: saline 98 % of control | [6] 101 % of control | dose: 200.0 mg/kg/injection, schedule: Q01DX009 (ip), vehicle: saline 104 % of control | [8] 98 % of control and 120 % of control | dose: 400.0 mg/kg/injection, schedule: Q01DX009 (ip), vehicle: saline 88 % of control | [10] 93 % of control and 117 % of control

O=c1cccc2n1CC1CNC[C@H]2C1
inactive: dose: 1.5 mg/kg/injection, schedule: Q01DX010 (ip), vehicle: saline 104 % of control | dose: 3.0 mg/kg/injection, schedule: Q01DX010 (ip), vehicle: saline 109 % of control | dose: 6.0 mg/kg/injection, schedule: Q01DX010 (ip), vehicle: saline 109 % of control

CC1(C)OCC(=NNC(N)=O)CO1
inactive: [6] 98 % of control

O=c1ccc2c([nH]1)CCCCC2
inactive: dose: 50.0 mg/kg/injection, schedule: Q04DX003 (ip), vehicle: saline sonified 104 % of control | dose: 100.0 mg/kg/injection, schedule: Q04DX003 (ip), vehicle: saline sonified 100 % of control | dose: 200.0 mg/kg/injection, schedule: Q04DX003 (ip), vehicle: saline sonified 95 % of control

COc1ccc(C(OC)C2CCCCC2N2CCCCC2)cc1 (configuration not stated)
inactive: dose: 0.5 mg/kg/injection, schedule: Q01DX009 (ip), vehicle: Klucel (hydroxypropylcellulose) (HPC) 90 % of control | dose: 1.0 mg/kg/injection, schedule: Q01DX009 (ip), vehicle: Klucel (hydroxypropylcellulose) (HPC) 101 % of control | dose: 2.0 mg/kg/injection, schedule: Q01DX009 (ip), vehicle: Klucel (hydroxypropylcellulose) (HPC) 98 % of control

CC(=O)Nc1ccc(S(=O)(=O)N/N=C\c2ccc(Cl)c(Cl)c2)cc1
inactive: [11] 99 % of control | [12] 98 % of control | [1] 96 % of control

COc1ccc2c(c1)/C(=C/CCN(C)C)c1ccccc1S2
inactive: dose: 12.5 mg/kg/injection, schedule: Q01DX009 (ip), vehicle: saline 109 % of control | dose: 16.5 mg/kg/injection, schedule: Q01DX009 (ip), vehicle: saline 118 % of control | dose: 37.5 mg/kg/injection, schedule: Q01DX009 (ip), vehicle: saline 95 % of control | [15] 118 % of control

CN(C)/C=N/n1cnc2c(ncn2C2OC(CO)C(O)C2O)c1=O (configuration not stated)
inactive: [16] 108 % of control | [6] 108 % of control | [8] 111 % of control | [10] 101 % of control

CCCOC(=O)/C=C(\Br)C(=O)OCCC
inactive: [13] 108 % of control | [2] 110 % of control | [14] 95 % of control

COc1ccc(N2C(=O)CC(Sc3ccccc3N)C2=O)cc1 (configuration not stated)
inactive: dose: 50.0 mg/kg/injection, schedule: Q01DX001 (ip), vehicle: Klucel (hydroxypropylcellulose) (HPC) 100 % of control | dose: 100.0 mg/kg/injection, schedule: Q01DX001 (ip), vehicle: Klucel (hydroxypropylcellulose) (HPC) 104 % of control

CCCCC(C(C)=O)C(C)C (configuration not stated)
inactive: dose: 75.0 mg/kg/injection, schedule: Q01DX009 (ip), vehicle: Klucel (hydroxypropylcellulose) (HPC) 90 % of control | dose: 100.0 mg/kg/injection, schedule: Q04DX003 (ip), vehicle: Klucel (hydroxypropylcellulose) (HPC) 111 % of control | [7] 90 % of control | dose: 200.0 mg/kg/injection, schedule: Q04DX003 (ip), vehicle: Klucel (hydroxypropylcellulose) (HPC) 96 % of control | [9] 95 % of control | dose: 400.0 mg/kg/injection, schedule: Q04DX003 (ip), vehicle: Klucel (hydroxypropylcellulose) (HPC) 96 % of control
